# Measurements from patent US10329262B2, “Quinazolinone antibiotics” (priority 2013, dated 2019).
# How the values were obtained:
# [1] = cited from earlier work
# S. aureus (ATCC 29213) = assay: Macromolecular synthesis assays; type: cell-based, Staphylococcus aureus; details: Staphylococcus aureus, ATCC29213; positive control, 16 μg/mL; read-out: Inhibition of cell-wall (peptidoglycan) biosynthesis
# From the text: Mechanism of Action of the Quinazolinones. The mode of action of 2 was investigated by macromolecular synthesis assays in S. aureus in the logarithmic phase, which monitor incorporation of radiolabeled precursors [methyl-^3H]-thymidine, [5-^3H]-uridine, L-[4,5-^3H]-leucine, or D-[2,3-^3H]-alanine into DNA, RNA, protein, or cell wall (peptidoglycan), respectively. Inhibition of radiolabeled precursor incorporation by 2 at a concentration of half the MIC was compared with those of known inhibitors of each pathway (ciprofloxacin, rifampicin, tetracycline, and fosfomycin, respectively).
# The mode of action of 2 was investigated by macromolecular synthesis assays in S. aureus in the logarithmic phase (Miller, A A et al. Antimicrob. Agents Chemother. 52, 2806-12 (2008)), which monitor incorporation of radiolabeled precursors [methyl-^3H]-thymidine, [5-^3H]-uridine, L-[4,5-^3H]-leucine, or D-[2,3-^3H]-alanine into DNA, RNA, protein, or cell wall (peptidoglycan), respectively.
# The incorporation of radiolabeled precursors—[methyl-^3H]-thymidine, [5-^3H]-uridine, L-[4,5-^3H]-leucine, or D-[2,3-^3H]-alanine—into DNA, RNA, protein, or peptidoglycan, respectively, in logarithmically growing S. aureus (ATCC 29213) was measured using a previously published method, with aliquots taken every 20 min over a 120-min incubation period (Wilson et al., Antimicrob. Agents Chemother. 39, 1925-33 (1995)).
# S. aureus NRS123 = assay: MIC, broth microdilution, S. aureus NRS123; type: cell-based; details: Staphylococcus aureus, NRS123
# Experimental: (§1) MICs were evaluated following the CLSI microdilution method in BBL™ Mueller-Hinton II broth (Wikler et al., Clinical Laboratory Standards Institute Document M7-A7, 29 (2009)). Briefly, two-fold serial dilutions of compound were prepared in triplicate in 96-well plates and inoculated with 5×10^5 cfu/mL of the bacterial suspension. Plates were incubated at 37° C. for 16-20 hours.
# [2] = system: S. epidermidis ATCC 35547; assay: MIC, CLSI broth microdilution, S. epidermidis ATCC 35547; type: cell-based
# Experimental: as §1
# [3] = system: S. aureus ATCC 29213 (MSSA); assay: MIC, CLSI broth microdilution, S. aureus ATCC 29213; type: cell-based, Staphylococcus aureus; details: Table 2.1, S. aureus ATCC 29213
# Experimental: as §1
# S. aureus NRS70 = assay: MIC, broth microdilution, S. aureus NRS70; type: cell-based, Staphylococcus aureus
# Experimental: as §1
# S. aureus NRS100 = assay: MIC, CLSI broth microdilution, S. aureus NRS100; type: cell-based, Staphylococcus aureus
# Experimental: as §1
# S. aureus NRS120 = assay: MIC, CLSI broth microdilution, S. aureus NRS120; type: cell-based, Staphylococcus aureus
# Experimental: as §1
# [4] = system: S. haemolyticus ATCC 29970; assay: MIC, CLSI broth microdilution, S. haemolyticus ATCC 29970; type: cell-based
# Experimental: as §1
# S. aureus NRS128 = assay: MIC, CLSI broth microdilution, S. aureus NRS128; type: cell-based, Staphylococcus aureus; details: Table 2.1, S. aureus NRS128
# Experimental: as §1
# S. aureus NRS119 = assay: MIC, CLSI broth microdilution, S. aureus NRS119; type: cell-based, Staphylococcus aureus
# Experimental: as §1
# S. aureus VRS2 = assay: MIC, CLSI broth microdilution, S. aureus VRS2; type: cell-based, Staphylococcus aureus
# Experimental: as §1
# S. aureus VRS1 = assay: MIC, CLSI broth microdilution, S. aureus VRS1; type: cell-based, Staphylococcus aureus
# Experimental: as §1
smiles,measurement,setting,value
CCCCCCCCCC(=O)N[C@@H](Cc1c[nH]c2ccccc12)C(=O)N[C@H](CC(N)=O)C(=O)N[C@@H](CC(=O)O)C(=O)N[C@@H]1C(=O)NCC(=O)N[C@@H](CCCN)C(=O)N[C@@H](CC(=O)O)C(=O)N[C@H](C)C(=O)N[C@@H](CC(=O)O)C(=O)NCC(=O)N[C@H](CO)C(=O)N[C@@H]([C@H](C)CC(=O)O)C(=O)N[C@@H](CC(=O)c2ccccc2N)C(=O)O[C@@H]1C [daptomycin],Plasma protein binding,[1],> 91%
"C[C@@H]1O[C@@H]1P(=O)(O)O [fosfomycin, reference compound]",inhibition at 16 µg/mL,S. aureus (ATCC 29213),64 ± 8%
CN[C@H](CC(C)C)C(=O)N[C@H]1C(=O)N[C@@H](CC(N)=O)C(=O)N[C@H]2C(=O)N[C@H]3C(=O)N[C@H](C(=O)N[C@H](C(=O)O)c4cc(O)cc(O)c4-c4cc3ccc4O)[C@H](O)c3ccc(c(Cl)c3)Oc3cc2cc(c3O[C@@H]2O[C@H](CO)[C@@H](O)[C@H](O)[C@H]2O[C@H]2C[C@](C)(N)[C@H](O)[C@H](C)O2)Oc2ccc(cc2Cl)[C@H]1O [vancomycin],MIC,S. aureus NRS123,1 µg/mL
same,MIC,"[2]; Staphylococcus epidermidis, ATCC35547",64 µg/mL
same,In vitro AB activity (MIC),"[2]; Table 2.1, S. epidermidis ATCC 35547",16 µg/mL
same,In vitro AB activity (MIC),[3],1 µg/mL
same,MIC,"S. aureus NRS70; Staphylococcus aureus, NRS70",1 µg/mL
same,In vitro AB activity (MIC),"S. aureus NRS70; Table 2.1, S. aureus NRS70",1 µg/mL
same,MIC,"S. aureus NRS100; Staphylococcus aureus, NRS100",2 µg/mL
same,In vitro AB activity (MIC),"S. aureus NRS100; Table 2.1, S. aureus NRS100",2 µg/mL
same,MIC,"S. aureus NRS120; Staphylococcus aureus, NRS120",2 µg/mL
same,In vitro AB activity (MIC),"S. aureus NRS120; Table 2.1, S. aureus NRS120",2 µg/mL
same,MIC,"[4]; Staphylococcus haemolyticus, ATCC29970",2 µg/mL
same,In vitro AB activity (MIC),"[4]; Table 2.1, S. haemolyticus ATCC 29970",2 µg/mL
same,In vitro AB activity (MIC),S. aureus NRS128,1 µg/mL
same,MIC,"S. aureus NRS119; Staphylococcus aureus, NRS119",2 µg/mL
same,In vitro AB activity (MIC),"S. aureus NRS119; Table 2.1, S. aureus NRS119",2 µg/mL
same,MIC,"S. aureus VRS2; Staphylococcus aureus, VRS2",64 µg/mL
same,In vitro AB activity (MIC),"S. aureus VRS2; Table 2.1, S. aureus VRS2",64 µg/mL
same,MIC,"S. aureus VRS1; Staphylococcus aureus, VRS1",> 256 µg/mL
same,In vitro AB activity (MIC),"S. aureus VRS1; Table 2.1, S. aureus VRS1",512 µg/mL
